For one test, the target named is T1, Coagulation factor VII (Homo sapiens, UniProt P08709).
T1 sequence (P08709 whole entry): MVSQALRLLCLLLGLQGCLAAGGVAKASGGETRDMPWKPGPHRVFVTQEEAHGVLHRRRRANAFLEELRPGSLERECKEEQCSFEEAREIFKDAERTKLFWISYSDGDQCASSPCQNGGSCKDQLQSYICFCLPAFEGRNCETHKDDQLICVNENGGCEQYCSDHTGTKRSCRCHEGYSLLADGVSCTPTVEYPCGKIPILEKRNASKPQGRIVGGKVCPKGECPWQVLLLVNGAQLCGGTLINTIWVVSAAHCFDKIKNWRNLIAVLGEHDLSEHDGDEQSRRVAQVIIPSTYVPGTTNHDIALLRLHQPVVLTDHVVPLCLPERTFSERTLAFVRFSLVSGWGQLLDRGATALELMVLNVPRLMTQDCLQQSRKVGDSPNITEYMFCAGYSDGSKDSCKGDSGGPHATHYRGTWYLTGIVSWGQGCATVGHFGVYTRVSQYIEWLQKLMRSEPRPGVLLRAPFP
Description: The value of binding constant measured against coagulation factor VII.

For a further test, the target named is Serine protease 1 (Homo sapiens, UniProt P07477). Description: The value of binding constant measured against human trypsin.
Serine protease 1, sequence (P07477 whole entry): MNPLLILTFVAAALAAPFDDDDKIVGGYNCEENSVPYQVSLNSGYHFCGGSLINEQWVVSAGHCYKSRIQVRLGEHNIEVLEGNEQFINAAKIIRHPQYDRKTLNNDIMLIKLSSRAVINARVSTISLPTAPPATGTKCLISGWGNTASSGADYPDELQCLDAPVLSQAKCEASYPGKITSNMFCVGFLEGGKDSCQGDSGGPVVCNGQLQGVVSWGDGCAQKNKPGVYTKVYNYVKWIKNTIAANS
A further test has as its target Prothrombin (Homo sapiens, UniProt P00734). Description: The value of binding constant measured against human Thrombin.
The next test concerns the target Coagulation factor X (Homo sapiens, UniProt P00742). Description: The value of binding constant measured against coagulation factor X (factor Xa).

Coagulation factor X, sequence (P00742 41-179 limits assumed): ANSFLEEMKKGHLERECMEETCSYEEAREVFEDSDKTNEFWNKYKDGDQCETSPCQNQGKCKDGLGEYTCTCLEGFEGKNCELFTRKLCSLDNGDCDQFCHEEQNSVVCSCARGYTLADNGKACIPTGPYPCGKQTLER
Coagulation factor X, sequence (P00742 235-488 limits assumed): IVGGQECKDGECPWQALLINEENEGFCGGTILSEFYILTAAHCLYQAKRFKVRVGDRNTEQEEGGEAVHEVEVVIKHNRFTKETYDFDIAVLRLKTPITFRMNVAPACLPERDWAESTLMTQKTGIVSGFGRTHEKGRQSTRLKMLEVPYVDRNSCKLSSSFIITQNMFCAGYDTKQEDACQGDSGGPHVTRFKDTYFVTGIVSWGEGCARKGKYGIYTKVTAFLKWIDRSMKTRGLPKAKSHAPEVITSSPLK

For orientation: Ki means the equilibrium dissociation constant of an inhibitor or competing ligand from its target. Read a low Ki as a stronger hold on the target. For `COc1cc(CNc2ccc(C(=N)N)cc2)ccc1OCc1ccccc1`, the Ki stood at 1000 nM at Coagulation factor VII, 580 nM at Serine protease 1, 270 nM on Prothrombin and 1200 nM on Coagulation factor X.
For `COc1cc(CNc2ccc(C(=N)N)cc2)c(NS(C)(=O)=O)cc1OCc1ccccc1`, in that order: 380 nM, 400 nM, 1400 nM and 26000 nM.
Taken in the same sequence, the figures for `CCOc1cc(C(Nc2ccc(C(=N)N)cc2)C(=O)NCc2ccccc2)ccc1OCc1ccccc1` (stereo unspecified) were 130 nM, 1100 nM, 48 nM and 4500 nM.
Taken in the same sequence, the figures for `COc1cc(C(Nc2ccc(C(=N)N)cc2)C(=O)NCc2ccccc2)c(S(=O)(=O)c2ccccc2)cc1OCc1ccccc1` (stereo unspecified) were 160 nM, 420 nM, 1700 nM and more than 74000 nM.
`CCOc1ccc(CNc2ccc(C(=N)N)cc2)cc1OCC`: the Ki at Serine protease 1 turned out to be 2000 nM; at Prothrombin, 4500 nM; at Coagulation factor X it was 39000 nM.
`COc1cc([C@@H](Nc2ccc(C(=N)N)cc2)C(=O)N[C@H](C(=O)O)c2ccccc2)ccc1OCc1ccccc1`: the Ki on Serine protease 1 is 40 nM; at Prothrombin it was 35 nM; on Coagulation factor X, 8000 nM.
For `CCOc1ccc(C(Nc2ccc(C(=N)N)cc2)C(=O)NCc2ccccc2)cc1OCC` (stereo unspecified), the Ki on Coagulation factor VII stood at 40 nM; on Serine protease 1 it was 2000 nM; on Prothrombin, 570 nM; at Coagulation factor X, 19000 nM.
Taken in the same sequence, the figures for `COc1cc(C(Nc2ccc(C(=N)N)cc2)C(=O)NCc2ccccc2)ccc1OCc1ccccc1` (stereo unspecified) were 220 nM, 210 nM, 43 nM and 5300 nM.
For `COc1cc([C@@H](Nc2ccc(C(=N)N)cc2)C(=O)N[C@H](C(=O)O)c2ccccc2)c(C(=O)Cc2ccccc2)cc1OCc1ccccc1`, in that order: 7 nM, 80 nM, 6400 nM and 19000 nM.
For `COc1ccc(C(Nc2ccc(C(=N)N)cc2)C(=O)NCc2ccccc2)cc1OC` (stereo unspecified), in that order: 350 nM, 1700 nM, 460 nM and 30000 nM.
As for `COc1cc([C@@H](Nc2ccc(C(=N)N)cc2)C(=O)N[C@H](C(=O)O)c2ccccc2)c(S(=O)(=O)c2ccccc2)cc1OCc1ccccc1`, the Ki on Serine protease 1 stood at 50 nM; at Prothrombin it was 540 nM; at Coagulation factor X, 12400 nM.

These data come from ChEMBL document CHEMBL1144307, “Design of selective phenylglycine amide tissue factor/factor VIIa inhibitors” (Bioorg Med Chem Lett, 2005).
